# In patent publication US10765114B2, “4-amino-6-(pyridyl and 2-substitutedphenyl)-picolinates and 6-amino-2-(pyridyl and 2-substitutedphenyl)-pyrimidine-4-carboxylates and their use as herbicides” (Dow AgroSciences LLC, priority 2013, dated 2020):
# Tested on: ALOMY (blackgrass)
# Experiment: Post-Emergent Test III (Wheat and Barley)
# Type: in vivo, Alopecurus myosuroides
# Settings: Alopecurus myosuroides, post-emergence, 504 h; 35 g ai/ha, postemergence; read-out: Visual Growth Reduction (%) 21 Days After Application, ALOMY
# Experimental: (§1) Seeds of the desired test plant species were planted in Sun Gro MetroMix® 306 planting mixture, which typically has a pH of 6.0 to 6.8 and an organic matter content of about 30 percent, in plastic pots with a surface area of 103.2 square centimeters (cm^2). When required to ensure good germination and healthy plants, a fungicide treatment and/or other chemical or physical treatment was applied. The plants were grown for 7-36 days in a greenhouse with an approximate 14 h photoperiod which was maintained at about 18° C. during the day and 17° C. during the night. Nutrients and water were added on a regular basis and supplemental lighting was provided with overhead metal halide 1000-Watt lamps as necessary. The plants were employed for testing when they reached the second or third true leaf stage.
# (§2) A weighed amount, determined by the highest rate to be tested, of each test compound was placed in a 25 mL glass vial and was dissolved in 4 mL of a 97:3 v/v mixture of acetone and DMSO to obtain concentrated stock solutions. […] The concentrated stock solutions obtained were diluted with 20 mL of an aqueous mixture containing acetone, water, isopropyl alcohol, DMSO, Agri-Dex crop oil concentrate, and X-77 surfactant in a 48:39:10:1.5:1.5:0.02 v/v ratio to obtain spray solutions containing the highest application rates. Additional application rates were obtained by serial dilution of 12 mL of the high rate solution into a solution containing 2 mL of 97:3 v/v mixture of acetone and DMSO and 10 mL of an aqueous mixture containing acetone, water, isopropyl alcohol, DMSO, Agri-Dex crop oil concentrate, and X-77 surfactant in a 48:39:10:1.5:1.5:0.02 v/v ratio to obtain ½×, ¼×, ⅛× and 1/16× rates of the high rate. Compound requirements are based upon a 12 mL application volume at a rate of 187 liters per hectare (L/ha). Formulated compounds were applied to the plant material with an overhead Mandel track sprayer equipped with 8002E nozzles calibrated to deliver 187 L/ha over an application area of 0.503 square meters at a spray height of 18 inches (43 cm) above the average plant canopy height. Control plants were sprayed in the same manner with the solvent blank.
# (§3) The treated plants and control plants were placed in a greenhouse as described above and watered by subirrigation to prevent wash-off of the test compounds. After 21 dAYS, the condition of the test plants as compared with that of the untreated plants was determined visually and scored on a scale of 0 to 100 percent where 0 corresponds to no injury and 100 corresponds to complete kill and presented as indicated in Table A.
# (§4) By applying the well-accepted probit analysis as described by J. Berkson in Journal of the American Statistical Society, 48, 565 (1953) and by D. Finney in “Probit Analysis” Cambridge University Press (1952), herbicidal injury of a specific compound at various rates can be used to calculate GR10, GR20, GR50, GR80 and GR90 values, which are defined as growth reduction factors that correspond to the effective dose of herbicide required to provide plant growth reduction (GR) of 10 percent, 20 percent, 50 percent, 80 percent and 90 percent, respectively. Probit analysis was applied to data collected from multiple dose rates of individual compounds utilizing the procedures explained in the following examples. The analysis of those dose rates is captured in the following tables.
row,SMILES,pest or weed control at 35 g/ha [%]
1,COC(=O)c1nc(-c2ccc(C(F)(F)F)nc2)c(Cl)c(N)c1Cl [Compound 83],60 to 74

# Same assay, conditions: Alopecurus myosuroides, post-emergence, 504 h; 70 g ai/ha, postemergence; read-out: Visual Growth Reduction (%) 21 Days After Application, ALOMY
row,SMILES,pest or weed control at 70 g/ha [%]
1,COC(=O)c1nc(-c2ccc(C(F)(F)F)nc2)c(Cl)c(N)c1Cl [Compound 83],75 to 84

# Same assay, conditions: effective dose for growth reduction of 50 percent, probit analysis
row,SMILES,"GR50, ALOMY [g ai/ha]"
1,COC(=O)c1nc(-c2ccc(C(F)(F)F)nc2)c(Cl)c(N)c1Cl [Compound 83],25

# Same assay, conditions: effective dose for growth reduction of 80 percent, probit analysis
row,SMILES,"GR80, ALOMY [g ai/ha]"
1,COC(=O)c1nc(-c2ccc(C(F)(F)F)nc2)c(Cl)c(N)c1Cl [Compound 83],58

# Tested on: APESV (windgrass)
# Experiment: Post-Emergent Test III (Wheat and Barley)
# Type: in vivo, Apera spica-venti
# Settings: Apera spica-venti, post-emergence, 504 h; 35 g ai/ha, postemergence; read-out: Visual Growth Reduction (%) 21 Days After Application, APESV
# Experimental: as §1, §2, §3, §4
row,SMILES,pest or weed control at 35 g/ha [%]
1,COC(=O)c1nc(-c2ccc(C(F)(F)F)nc2)c(Cl)c(N)c1Cl [Compound 83],30 to 44

# Same assay, conditions: Apera spica-venti, post-emergence, 504 h; 70 g ai/ha, postemergence; read-out: Visual Growth Reduction (%) 21 Days After Application, APESV
row,SMILES,pest or weed control at 70 g/ha [%]
1,COC(=O)c1nc(-c2ccc(C(F)(F)F)nc2)c(Cl)c(N)c1Cl [Compound 83],30 to 44

# Same assay, conditions: effective dose for growth reduction of 50 percent, probit analysis
row,SMILES,"GR50, APESV [g ai/ha]"
1,COC(=O)c1nc(-c2ccc(C(F)(F)F)nc2)c(Cl)c(N)c1Cl [Compound 83],89

# Same assay, conditions: effective dose for growth reduction of 80 percent, probit analysis
row,SMILES,"GR80, APESV [g ai/ha]"
1,COC(=O)c1nc(-c2ccc(C(F)(F)F)nc2)c(Cl)c(N)c1Cl [Compound 83],>140

# Tested on: TRZSS
# Experiment: Post-Emergent Test III (Wheat and Barley)
# Type: in vivo
# Settings: Triticum aestivum, post-emergence, 504 h; 35 g ai/ha, postemergence; read-out: Visual Growth Reduction (%) 21 Days After Application, TRZSS
# Experimental: as §1, §2, §3, §4
row,SMILES,pest or weed control at 35 g/ha [%]
1,COC(=O)c1nc(-c2ccc(C(F)(F)F)nc2)c(Cl)c(N)c1Cl [Compound 83],60 to 74

# Same assay, conditions: Triticum aestivum, post-emergence, 504 h; 70 g ai/ha, postemergence; read-out: Visual Growth Reduction (%) 21 Days After Application, TRZSS
row,SMILES,pest or weed control at 70 g/ha [%]
1,COC(=O)c1nc(-c2ccc(C(F)(F)F)nc2)c(Cl)c(N)c1Cl [Compound 83],75 to 84

# Same assay, conditions: effective dose for growth reduction of 20 percent, probit analysis
row,SMILES,"GR20, TRZSS [g ai/ha]"
1,COC(=O)c1nc(-c2ccc(C(F)(F)F)nc2)c(Cl)c(N)c1Cl [Compound 83],4

# Tested on: LOLSS
# Experiment: Post-Emergent Test III (Wheat and Barley)
# Type: in vivo
# Settings: effective dose for growth reduction of 50 percent, probit analysis
# Experimental: as §1, §2, §3, §4
row,SMILES,"GR50, LOLSS [g ai/ha]"
1,COC(=O)c1nc(-c2ccc(C(F)(F)F)nc2)c(Cl)c(N)c1Cl [Compound 83],59

# Same assay, conditions: effective dose for growth reduction of 80 percent, probit analysis
row,SMILES,"GR80, LOLSS [g ai/ha]"
1,COC(=O)c1nc(-c2ccc(C(F)(F)F)nc2)c(Cl)c(N)c1Cl [Compound 83],99

# Same assay, conditions: post-emergence, 504 h; 35 g ai/ha, postemergence; read-out: Visual Growth Reduction (%) 21 Days After Application, LOLSS
row,SMILES,pest or weed control at 35 g/ha [%]
1,COC(=O)c1nc(-c2ccc(C(F)(F)F)nc2)c(Cl)c(N)c1Cl [Compound 83],0 to 29

# Same assay, conditions: post-emergence, 504 h; 70 g ai/ha, postemergence; read-out: Visual Growth Reduction (%) 21 Days After Application, LOLSS
row,SMILES,pest or weed control at 70 g/ha [%]
1,COC(=O)c1nc(-c2ccc(C(F)(F)F)nc2)c(Cl)c(N)c1Cl [Compound 83],60 to 74

# Tested on: HORSS
# Experiment: Post-Emergent Test III (Wheat and Barley)
# Type: in vivo
# Settings: Hordeum vulgare, post-emergence, 504 h; 35 g ai/ha, postemergence; read-out: Visual Growth Reduction (%) 21 Days After Application, HORSS
# Experimental: as §1, §2, §3, §4
row,SMILES,pest or weed control at 35 g/ha [%]
1,COC(=O)c1nc(-c2ccc(C(F)(F)F)nc2)c(Cl)c(N)c1Cl [Compound 83],75 to 84

# Same assay, conditions: Hordeum vulgare, post-emergence, 504 h; 70 g ai/ha, postemergence; read-out: Visual Growth Reduction (%) 21 Days After Application, HORSS
row,SMILES,pest or weed control at 70 g/ha [%]
1,COC(=O)c1nc(-c2ccc(C(F)(F)F)nc2)c(Cl)c(N)c1Cl [Compound 83],85 to 94

# Same assay, conditions: effective dose for growth reduction of 20 percent, probit analysis
row,SMILES,"GR20, HORSS [g ai/ha]"
1,COC(=O)c1nc(-c2ccc(C(F)(F)F)nc2)c(Cl)c(N)c1Cl [Compound 83],3

# Tested on: KCHSC (kochia)
# Experiment: Post-Emergent Test III (Wheat and Barley)
# Type: in vivo, Kochia scoparia
# Settings: Bassia scoparia, post-emergence, 504 h; 35 g ai/ha, postemergence; read-out: Visual Growth Reduction (%) 21 Days After Application, KCHSC
# Experimental: as §1, §2, §3, §4
row,SMILES,pest or weed control at 35 g/ha [%]
1,COC(=O)c1nc(-c2ccc(C(F)(F)F)nc2)c(Cl)c(N)c1Cl [Compound 83],0 to 29

# Same assay, conditions: Bassia scoparia, post-emergence, 504 h; 70 g ai/ha, postemergence; read-out: Visual Growth Reduction (%) 21 Days After Application, KCHSC
row,SMILES,pest or weed control at 70 g/ha [%]
1,COC(=O)c1nc(-c2ccc(C(F)(F)F)nc2)c(Cl)c(N)c1Cl [Compound 83],30 to 44

# Same assay, conditions: effective dose for growth reduction of 50 percent, probit analysis
row,SMILES,"GR50, KCHSC [g ai/ha]"
1,COC(=O)c1nc(-c2ccc(C(F)(F)F)nc2)c(Cl)c(N)c1Cl [Compound 83],113

# Same assay, conditions: effective dose for growth reduction of 80 percent, probit analysis
row,SMILES,"GR80, KCHSC [g ai/ha]"
1,COC(=O)c1nc(-c2ccc(C(F)(F)F)nc2)c(Cl)c(N)c1Cl [Compound 83],>140
